{"source": "patent US10555522B2", "about": "“Long term methods of improving disease tolerance in plants” (priority 2016, dated 2020)", "key": {"[1]": {"system": "Beet Curly Top Virus (BCTV)", "test": "Evaluation of Beet Curly Top Virus on tomatoes (field trial, seedlings treated before transplantation)", "assay_type": "in vivo", "conditions": "tomato var Heinz 8504; seedlings sprayed with 4 gm ai/ha two days before transplant; rated approximately 8 weeks later; P = 0.065", "description": "In the instant example, symptoms of infection with Beet Curly Top Virus (BCTV) on tomatoes were evaluated. Plants were either treated with a composition comprising 1-MCP or left untreated.\nTomato seedlings (var Heinz 8504) with 4 leaves (approximately 4 inches tall) in seedling trays were either i) sprayed with a treatment of 1-MCP (4 gm ai/ha) or ii) left untreated. Contacting the plants was achieved using a pressurized backpack spraying system containing 1-MCP and water. Two days later, the tomato seedlings were transplanted into the open field near Five Points, Calif. following normal commercial tomato production practices.\nThroughout the growing season, normal field production practices were performed, including fertilization, watering, and pest control (e.g., insecticide, fungicide, and herbicide) applications uniformly to the entire trial area. Approximately eight (8) weeks later, when the tomatoes had grown to approximately 2 feet tall, an infestation of Beet Curly Top Virus (BCTV) was noted. Observations were taken on percentage of plants infected with BCTV in treated and untreated plots."}, "[2]": {"system": "Tomato Yellow Leaf Curl Virus (TYLCV)", "test": "Evaluation of Tomato Yellow Leaf Curl Virus on tomatoes (field trial)", "assay_type": "in vivo, Tomato Yellow Leaf Curl Virus (Begomovirus Geminiviridae)", "conditions": "tomato var Florida 47; seedlings treated with 50 ppm ai by watering can three days before transplant; rated approximately 9 weeks later; P = 0.081", "description": "In the instant example, symptoms of infection with Tomato Yellow Leaf Curl Virus (TYLCV) on tomatoes were evaluated. Plants were either treated with a composition comprising 1-MCP or left untreated.\n(§1) Tomato seedlings (var Florida 47) with approximately 4 leaves (approximately 4 inches tall) in seedling trays were either i) sprayed with 1-MCP (50 ppm ai) or ii) left untreated. Contacting the plants was achieved using a watering can containing 1-MCP and water. Three days later, the seedlings were transplanted into the open field near Myakka City, Fla. following normal commercial tomato production practices.\n(§2) Throughout the growing season, normal field production practices were performed, including fertilization, watering, and pest control (e.g., insecticide, fungicide, and herbicide) applications uniformly to the entire trial area. Approximately 9 weeks later, when the tomatoes had grown to approximately 3 feet tall, an infestation of Tomato Yellow Leaf Curl Virus was observed. In each plot of plants that were treated with 1-MCP, and the corresponding plot of plants that were untreated, counts were made of the number of plants showing symptoms of infection by TYLCV out of the total of 54 plants per plot."}, "[3]": {"system": "Target Spot (Corynespora cassiicola)", "test": "Evaluation of Target Spot infection on tomatoes (field trial)", "assay_type": "in vivo", "conditions": "tomato var HM 1823; seedlings treated with 50 ppm ai by watering can three days before transplant; rated approximately 9 weeks later; P = 0.003", "description": "In the instant example, symptoms of Target Spot […] infection (Corynespora cassiicola) on tomatoes were evaluated. Plants were either treated with a composition comprising 1-MCP or left untreated.\nas §1, with “HM 1823)” for “Florida 47)”\nas §2, with “Target Spot” for “Tomato Yellow Leaf Curl Virus”, “Target Spot” for “TYLCV”"}, "[4]": {"system": "Bacterial Spot (Xanthomonas euvesicatoria and Xanthomonas perforans, Xanthomonas vesicatoria, and Xanthomonas gardneri)", "test": "Evaluation of Bacterial Spot on tomatoes (field trial)", "assay_type": "in vivo", "conditions": "tomato var Charger; seedlings sprayed with 1-40 g ai/ha two days before transplant; rated approximately 3 weeks later; p = 0.04", "description": "In the instant example, symptoms of Bacterial Spot bacterial infection (Xanthomonas euvesicatoria and Xanthomonas perforans=[Xanthomonas axonopodis (syn. campestris) pv. vesicatoria], Xanthomonas vesicatoria, and Xanthomonas gardneri) on tomatoes were evaluated. Plants were either treated with a composition comprising 1-MCP or left untreated.\n(§3) Tomato Seedlings (var Charger) with approximately 4 leaves (approximately 4-5 inches tall) in seedling trays were either i) sprayed with 1-MCP (1-40 g ai/ha) or ii) left untreated. Contacting the plants was achieved using pressurized backpack sprayer. Two days later, the seedlings were transplanted into the open field near Thonotosassa, Fla. following normal commercial tomato production practices.\nas §2, with “3” for “9”, “1½” for “3”, “tall” for “tall,”, “Bacterial Spot” for “Tomato Yellow Leaf Curl Virus”, “disease severity assessments” for “counts”, “made.” for “made of the number of plants showing symptoms of infection by TYLCV out of the total of 54 plants per plot.”"}, "[5]": {"system": "Early Blight (Alternaria tomatophila)", "test": "Evaluation of Early Blight on tomatoes (field trial)", "assay_type": "in vivo", "description": "In the instant example, symptoms of fungal infection with Early Blight (Alternaria tomatophila) on tomatoes were evaluated. Plants were either treated with a composition comprising 1-MCP or left untreated.\nas §3, with “seedlings” for “Seedlings”, “(1-10” for “(1-40”\n(§4) Throughout the growing season, normal field production practices were performed, including fertilization, watering, and pest control (e.g., insecticide, fungicide, and herbicide) applications uniformly to the entire trial area. Beginning approximately 3 weeks later, and continuing approximately 7 weeks later and approximately 11 weeks later, the percent disease severity ratings were made in each plot of plants that were treated with 1-MCP and the corresponding plot of plants that were untreated."}, "Root Rot (Pythium sp.)": {"system": "Root Rot (Pythium sp.)", "test": "Evaluation of Root Rot on peppers (field trial)", "assay_type": "in vivo", "description": "In the instant example, symptoms of fungal infection with Root Rot (Pythium sp.) on peppers were evaluated. Plants were either treated with a composition comprising 1-MCP or left untreated.\nPepper seedlings with approximately 3 leaves (approximately 4-5 inches tall) in seedling trays were either i) sprayed with 1-MCP (1-10 g ai/ha) or ii) left untreated. Contacting the plants was achieved using a watering can containing a 50 ppm solution of 1-MCP. Three days later, the seedlings were transplanted into the open field near Clinton, N.C. following normal commercial pepper production practices.\nThroughout the growing season, normal field production practices were performed, including fertilization, watering, and pest control (e.g., insecticide, fungicide, and herbicide) applications uniformly to the entire trial area."}, "[6]": {"system": "Downy Mildew (Pseudoperonospora cubensis)", "test": "Evaluation of Downy Mildew on cucumbers (field trial)", "assay_type": "in vivo", "description": "In the instant example, symptoms of fungal infection with Downy Mildew (Pseudoperonospora cubensis) on cucumbers were evaluated. Plants were either treated with a composition comprising 1-MCP or left untreated.\nas §3, with “Cucumber seedlings” for “Tomato Seedlings (var Charger)”, “3” for “4”, “3” for “4-5”, “(40” for “(1-40”, “Futian Village, Wangsi Township, Dayi County, Sichuan, China,” for “Thonotosassa, Fla.”, “commercial” for “commercial tomato”\nas §4, with “Approximately 5-6” for “Beginning approximately 3 weeks later, and continuing approximately 7 weeks later and approximately 11”"}}}
{"smiles": "CC1=CC1", "note": "[1-MCP, 1-methylcyclopropene]", "values": [{"measurement": "Percentage of BCTV Infested Plants", "setting": "[1]", "value": 4, "unit": "%"}, {"measurement": "Mean (plants showing symptoms of infection by TYLCV out of 54 plants per plot)", "setting": "[2]", "value": 11, "unit": "%"}, {"measurement": "Percentage of Infected Plants (Target Spot)", "setting": "[3]", "value": 19, "unit": "%"}, {"measurement": "Bacterial Spot disease severity assessment", "setting": "[4]", "value": 4, "unit": "%"}, {"measurement": "reduction of average percent disease severity ratings for Early Blight versus untreated", "setting": "[5]; across the three rating dates (approximately 3, 7, 11 weeks)", "value": "approximately 30%"}, {"measurement": "average percent disease severity rating for Early Blight", "setting": "[5]; tomato var Charger, seedlings sprayed with 1-10 g ai/ha two days before transplant, average across approximately 3, 7 and 11 weeks later, p = 0.09", "value": 27.6, "unit": "%"}, {"measurement": "mortality and stunting of plants caused by Pythium", "setting": "Root Rot (Pythium sp.); pepper seedlings treated with 1-10 g ai/ha (watering can, 50 ppm solution) three days before transplant, versus untreated", "value": "clearly reduced the mortality and stunting of plants"}, {"measurement": "plant appearance and Pythium pressure compared to untreated controls", "setting": "Root Rot (Pythium sp.); pepper, two weeks after transplantation", "value": "slightly larger, darker green, and not as affected by Pythium pressure"}, {"measurement": "percent disease (Downy Mildew) severity rating", "setting": "[6]; cucumber seedlings sprayed with 40 g ai/ha two days before transplant, rated approximately 5-6 weeks later, p = 0.08", "value": 18, "unit": "%"}, {"measurement": "reduction of percent disease (Downy Mildew) severity ratings versus untreated", "setting": "[6]; cucumber, approximately 5-6 weeks later", "value": "approximately 47%"}]}
